Experimental data from patent US7777060B2, “Platinum analogs with bis-nitrile-containing ligands” (BioNumerik Pharmaceuticals, Inc., priority 2007, dated 2010).
pIC50: −log10 of the molar value.

Assays:
Assay type in all cases: cell-based
A2780/CP3 = test: Cytotoxicity IC50 in A2780/CP3 cell line, 1 hour drug exposure; details: for pIC50: 1 hour of exposure to the drug, average of repeat experiments, dash = IC50 >100 μM; for CP3 Rfact: resistance factor = IC50 in A2780/CP3 ÷ IC50 in A2780/WT
Description: (§1) All experiments are with 1 hour of exposure to the drug, IC50 in μM. The platinum compounds have been tested by the resistance factor in CP3 cell line (CP3 Rfact) and C25 cell line (C25 Rfact). The terms (CP3 Rfact) and (C25 Rfact) are determined utilizing the following equations, wherein WT stands for wild-type. CP3 Rfact=IC50 in A2780/CP3÷IC50 in A2780/WT C25 Rfact=IC50 in A2780/C25÷IC50 in A2780/WT
(§2) In addition, Compounds with “ - - - ” in the IC50 column indicate the IC50s are >100 μM.

A2780/C25 = test: Cytotoxicity IC50 in A2780/C25 cell line, 1 hour drug exposure; details: for pIC50: 1 hour of exposure to the drug, average of repeat experiments; for C25 Rfact: resistance factor = IC50 in A2780/C25 ÷ IC50 in A2780/WT
Description: as §1, §2

A2780/WT = test: Cytotoxicity IC50 in A2780/WT cell line, 1 hour drug exposure; details: 1 hour of exposure to the drug; average of repeat experiments
Description: as §1, §2

Compound | pIC50 (A2780/CP3) | CP3 Rfact (A2780/CP3) | pIC50 (A2780/C25) | C25 Rfact (A2780/C25) | pIC50 (A2780/WT)
COC(CCC#N)c1ccccc1.COC(CCC#N)c1ccccc1.[Cl][Pt@SP1][Cl] (stereo not drawn) [BNP3017, Cis-bis(4-methoxy-4-phenylbutyronitrile)dichloroplatinum (II)] | 4.73 | 1.34 | 4.74 | 1.29 | 4.85
N#CCc1ccccc1C(F)(F)F.N#CCc1ccccc1C(F)(F)F.[Cl][Pt@SP1][Cl] [BNP3037/t, Trans-bis-[2-(trifluoromethyl)-phenylacetonitrile]dichloroplatinum] | < 4.00 | – | 4.16 | 0.79 | 4.06
N#CCCCc1ccccc1.N#CCCCc1ccccc1.[Cl][Pt@SP1][Cl] [BNP3029/t, Trans-bis-(4-phenylbutyronitrile)dichloroplatinum (II)] | 4.72 | 1.19 | 4.75 | 1.09 | 4.79
N#CCCCc1ccccc1.N#CCCCc1ccccc1.[Cl][Pt@SP1][Cl] [BNP3029/c, Cis-bis-(4-phenylbutyronitrile)dichloroplatinum (II)] | 5.16 | 1.56 | 5.26 | 1.24 | 5.36
N#CCCC1CCCCC1=O.N#CCCC1CCCCC1=O.[Cl][Pt@SP1][Cl] (stereo not drawn) [BNP3020, Cis-bis[3-(2-oxo-cyclohexyl)-propionitrile]dichloroplatinum (II)] | 4.07 | 1.63 | 4.21 | 1.19 | 4.29
Cis-bis-[4-(trifluoromethoxy)-phenylacetonitrile]dichloroplatinum (II) [BNP3031] | 4.45 | 1.95 | 4.63 | 1.26 | 4.73
N#CCc1ccc2c(c1)OCO2.N#CCc1ccc2c(c1)OCO2.[Cl][Pt@SP1][Cl] [BNP3016, Cis-bis(3,4-(methylenedioxy)phenylacetonitrile)dichloroplatinum (II)] | 4.12 | 1.21 | 4.18 | 1.07 | 4.20
CCCCOCCC#N.CCCCOCCC#N.[Cl][Pt@SP1][Cl] [BNP3022, Cis-bis(3-butoxypropanenitrile)dichloroplatinum (II)] | < 4.00 | – | 4.19 | 0.88 | 4.13
Cis-bis(cyclopropaneacetonitrile)dichloroplatinum (II) [BNP3014/c] | 4.25 | 2.39 | 4.34 | 1.94 | 4.63
Cc1ccccc1CC#[N+][Pt-2]([Cl])([Cl])[N+]#CCc1ccccc1C [BNP3024, Cis-bis-(o-tolylacetonitrile)dichloroplatinum (II)] | 4.73 | 1.34 | 4.73 | 1.34 | 4.86
Trans-bis(2,6-difluoro-3-methylphenylacetonitrile)dichloroplatinum (II) [BNP3036/t] | 4.27 | 2.28 | 4.45 | 1.49 | 4.63
N#CC1Cc2ccccc21.N#CC1Cc2ccccc21.[Cl][Pt@SP1][Cl] (stereo not drawn) [BNP3030, Cis-bis(bicyclo[4.2.0]octa-1(6),2,4-triene-7-carbonitrile)dichloroplatinum (II)] | 4.21 | 1.20 | 4.23 | 1.15 | 4.29
[Cl][Pt-2]([Cl])([N+]#CC1CCC1)[N+]#CC1CCC1 [BNP3021, Cis-bis-(cyclobutanecarbonitrile)dichloroplatinum (II)] | 4.38 | 2.97 | 4.53 | 2.10 | 4.86
Cc1cccc(CC#[N+][Pt-2]([Cl])([Cl])[N+]#CCc2cccc(C)c2)c1 [BNP3026, Cis-bis(m-tolylacetonitrile)dichloroplatinum (II)] | 4.55 | 1.32 | 4.62 | 1.11 | 4.67
Trans-bis(cyclopropaneacetonitrile)dichloroplatinum (II) [BNP3014/t] | < 4.00 | – | 4.04 | 1.35 | 4.17
